Measurements reported in article PMC7601839, “Anti-Acne Effects of Cembrene Diterpenoids from the Cultured Soft Coral Sinularia flexibilis” (Marine Drugs, 2020).

How the values were obtained:
[1] = test system: COX-2; design: method as in PMID 23774887; details: LPS-stimulated RAW264.7 macrophage cells; cited from earlier work
[2] = test system: COX-2; design: method as in PMID 23675440; details: LPS-stimulated murine macrophages; cited from earlier work
[3] = test system: iNOS; design: method as in PMID 23675440; details: LPS-stimulated murine macrophages; cited from earlier work
[4] = test system: iNOS; design: method as in PMID 23774887; details: LPS-stimulated RAW264.7 macrophage cells; cited from earlier work
[5] = test system: RAW 264.7 cells; test: Survival rate of RAW 264.7 cells by MTT assay; format: cell-based; details: LPS-induced RAW 264.7 cells, 24 h, 20 μM
Experimental: (§1) Anti-inflammatory effects were analyzed in RAW 264.7 cells, which were cultured in DMEM with 10% FBS, 1% L-glutamine, and 1% penicillin-streptomycin, and maintained at 37 °C in a 5% CO2 atmosphere. RAW 264.7 cells (4.0 × 10^5 cells/mL) were seeded in 96-well plates and co-treated with LPS (500 ng/mL) and test samples. After 24 h, NO production was determined by Griess reagent, and the absorption was detected at 530 nm. The percentage inhibition of NO production was presented as the anti-inflammatory activity. PGE2 concentrations in cell culture media were determined with a PGE2 enzyme-linked immunosorbent assay (ELISA) kit (Enzo Life Sciences, Farmingdale, NY, USA). The survival rate of RAW 264.7 cells was detected using an MTT assay.

[6] = test system: LPS-induced RAW 264.7 cells (NO production); test: NO production (Griess) in LPS-induced RAW 264.7 cells; format: cell-based
Experimental: as §1

[7] = test system: A375 melanoma cells; design: method as in PMID 23880933; details: cited from earlier work

Compound	accumulation of COX-2 protein [1]	expression of cyclooxygenase (COX)-2 [2]	expression of induced nitric oxide synthase (iNOS) [3]	accumulation of the proinflammatory iNOS protein [4]	Cell Viability (%) [5]	inhibitory effects on NO expression [6]	NO Inhibition (%) ([6]; 24 h, 20 μM)	proliferation and migration of A375 melanoma cells [7]
C=C1C(=O)O[C@]2(C)CC[C@@H]1C[C@@H]1O[C@@]1(C)CC/C=C(\C)CC[C@H]2OC(C)=O [Ya-s11, 11-Episinulariolide acetate]	could reduce	inhibits the expression	inhibits the expression	significantly inhibit	–	–	–	–
sinulariolide [SC-4]	–	–	–	significantly inhibit	98.8 ± 1.2%	no inhibitory effects	−4.3 ± 1.6%	inhibits the proliferation and migration
